Where two headings read alike, the source gives them in different places. Starred links: 1 amine or outer side, 2 acyl side, 3 side chain; linkers in the order of their positions; H or OH if unused. Non-standard residues stand in square brackets, D forms with d. Groups on a side chain read outwards from the residue. *: point of attachment. C20 diacid = O=C(O)CCCCCCCCCCCCCCCCCCC(=O)*; C18 diacid = O=C(O)CCCCCCCCCCCCCCCCC(=O)*; γGlu = O=C(O)[C@H](CCC(=O)[*:2])N[*:1]; εLys = N[C@@H](CCCCN[*:1])C(=O)[*:2]; hArg = N=C(N)NCCCC[C@H](N)C(=O)O; AEEA = NCCOCCOCC(=O)O; Aib = CC(C)(N)C(=O)O
What was measured:
Type in all cases: cell-based
Details in all cases: CreLuc reporter gene assay
[1] = target: T1, hNPY2R (Homo sapiens, UniProt P49146); assay: hNPY2R CreLuc reporter gene assay in 0.5% and 100% plasma
T1 construct: expressed in transfected cells; host or cells: HEK-293 cells carrying a CRE-luciferase reporter gene
T1 sequence (P49146 1-381): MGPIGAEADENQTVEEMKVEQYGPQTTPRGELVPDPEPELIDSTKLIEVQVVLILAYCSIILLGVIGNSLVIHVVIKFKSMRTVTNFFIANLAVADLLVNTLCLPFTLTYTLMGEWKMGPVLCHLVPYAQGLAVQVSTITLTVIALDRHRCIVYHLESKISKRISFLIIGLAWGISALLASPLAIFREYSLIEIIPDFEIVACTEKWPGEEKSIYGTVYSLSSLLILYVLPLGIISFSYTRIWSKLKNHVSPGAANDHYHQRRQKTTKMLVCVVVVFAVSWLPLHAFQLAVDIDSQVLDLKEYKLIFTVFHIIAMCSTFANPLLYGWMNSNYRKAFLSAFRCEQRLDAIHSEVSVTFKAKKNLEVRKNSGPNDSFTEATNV
In short: (§1)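 HEK cells (GLP-1R, NPY2R) or CHO cells (GIPR) carrying a CRE-luciferase reporter, incubated 4 h at 37 °C with peptides in HBSS/20 mM HEPES pH 7.4 plus 0.5% human plasma, or in 100% plasma. Luminescence read; EC50 from 8-point variable-slope sigmoid fits.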

[2] = target: T2, hGLP1R (Homo sapiens, UniProt P43220); assay: hGLP1R CreLuc reporter gene assay in 0.5% and 100% plasma
T2 construct: expressed in transfected cells; host or cells: HEK-293 cells carrying a CRE-luciferase reporter gene
T2 sequence (P43220 24-463): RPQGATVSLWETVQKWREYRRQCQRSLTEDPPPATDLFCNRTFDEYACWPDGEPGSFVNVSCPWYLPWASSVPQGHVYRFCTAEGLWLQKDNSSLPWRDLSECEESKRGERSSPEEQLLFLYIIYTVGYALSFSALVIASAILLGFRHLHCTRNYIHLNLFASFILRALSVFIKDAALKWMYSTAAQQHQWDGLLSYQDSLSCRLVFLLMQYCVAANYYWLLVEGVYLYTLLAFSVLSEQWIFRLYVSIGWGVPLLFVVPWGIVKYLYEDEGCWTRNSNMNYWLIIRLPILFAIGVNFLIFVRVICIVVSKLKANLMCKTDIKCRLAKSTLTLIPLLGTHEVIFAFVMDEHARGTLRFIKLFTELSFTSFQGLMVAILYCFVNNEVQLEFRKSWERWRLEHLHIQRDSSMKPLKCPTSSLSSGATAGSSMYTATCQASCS
In short: as §1

[3] = target: T3, hGIPR (Homo sapiens, UniProt P48546); assay: hGIPR CreLuc reporter gene assay in 0.5% and 100% plasma
T3 construct: expressed in transfected cells; host or cells: CHO cells carrying a CRE-luciferase reporter gene
T3 sequence (P48546 22-466): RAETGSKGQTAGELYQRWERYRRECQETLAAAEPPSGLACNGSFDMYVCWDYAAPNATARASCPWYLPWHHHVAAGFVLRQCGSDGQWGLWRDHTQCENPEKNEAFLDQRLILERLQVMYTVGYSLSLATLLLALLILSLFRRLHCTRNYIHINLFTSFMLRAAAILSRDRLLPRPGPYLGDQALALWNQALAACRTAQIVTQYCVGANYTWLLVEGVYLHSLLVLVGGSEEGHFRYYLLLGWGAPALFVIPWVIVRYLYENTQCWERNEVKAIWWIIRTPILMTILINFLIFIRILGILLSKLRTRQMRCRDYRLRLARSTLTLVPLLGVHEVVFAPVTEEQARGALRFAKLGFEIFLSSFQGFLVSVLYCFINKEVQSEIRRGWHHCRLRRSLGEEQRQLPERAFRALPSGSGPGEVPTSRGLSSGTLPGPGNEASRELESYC
In short: as §1

[4] = 0.5% human plasma, read-out: hNPY2R 0.5% hP
[5] = 100% human plasma, read-out: hNPY2R 100% hP
[6] = 0.5% human plasma, read-out: hGLP1R 0.5% hP
[7] = 100% human plasma, read-out: hGLP1R 100% hP
[8] = 0.5% human plasma, read-out: hGIPR 0.5% hP
[9] = 100% human plasma, read-out: hGIPR 100% hP

Molecule: H-Y[Aib]EGTFTSDYSI[Aib]LEKQAQ[Aib]AFVEWLIK([εLys-γGlu-γGlu-γGlu-γGlu-γGlu-γGlu-C20 diacid])GGPSSGASLRHYYNWLT[hArg]QR[dY]-NH2 [Compound 71, Y-Aib-E-G-T-F-T-S-D-Y-S-I-Aib-L-E-K-Q-A-Q-Aib-A-F-V-E-W-L-I-K(1,3)-G-G-P-S-S-G-A-S-L-R-H-Y-Y-N-W-L-T-hArg-Q-R-DTyr-NH2.C20DA-gGlu-gGlu-gGlu-gGlu-gGlu-gGlu-eLys(1,2)]
- EC50 [1, 4]: > 100 nM
- EC50 [1, 5]: > 1000 nM
- EC50 [2, 6]: 0.14 nM
- EC50 [2, 7]: 1.13 nM
- EC50 [3, 8]: 0.13 nM
- EC50 [3, 9]: 0.64 nM

Molecule: H-Y[Aib]EGTFTSDYSI[Aib]LEKQAQ[Aib]AFVQWLIK([γGlu-γGlu-γGlu-γGlu-γGlu-C18 diacid])GGPESPASLRHYYNWLTRQRY-NH2 [Compound 12, Y-Aib-E-G-T-F-T-S-D-Y-S-I-Aib-L-E-K-Q-A-Q-Aib-A-F-V-Q-W-L-I-K(1,3)-GGPESPASLRHYYNWLTRQRY-NH2.C18DA-gGlu-gGlu-gGlu-gGlu-gGlu(1,2)]
- EC50 [1, 4]: 11.9 nM
- EC50 [1, 5]: 45.8 nM
- EC50 [2, 6]: 0.11 nM
- EC50 [2, 7]: 4.76 nM
- EC50 [3, 8]: 0.14 nM

Molecule: H-Y[Aib]EGTFTSDYSI[Aib]LEKQAQ[Aib]AFVQWLIK([εLys-γGlu-γGlu-γGlu-γGlu-γGlu-C18 diacid])GGPSEGASLRHYYNWLTRQRY-NH2 [Compound 267, Y-Aib-E-G-T-F-T-S-D-Y-S-I-Aib-L-E-K-Q-A-Q-Aib-A-F-V-Q-W-L-I-K(1,3)-GGPSEGASLRHYYNWLTRQRY-NH2.C18DA-gGlu-gGlu-gGlu-gGlu-gGlu-eLys(1,2)]
- EC50 [1, 5]: 27.6 nM
- EC50 [2, 6]: 0.07 nM
- EC50 [3, 8]: 0.12 nM
- EC50 [3, 9]: 1.18 nM

Molecule: H-Y[Aib]EGTFTSDYSI[Aib]LEKQAQ[Aib]EFVQWLIK([γGlu-γGlu-γGlu-γGlu-γGlu-γGlu-C20 diacid])GGPSEGASLRHYYNWLTRQRY-NH2 [Compound 185, Y-Aib-E-G-T-F-T-S-D-Y-S-I-Aib-L-E-K-Q-A-Q-Aib-E-F-V-Q-W-L-I-K(1,3)-GGPSEGASLRHYYNWLTRQRY-NH2.C20DA-gGlu-gGlu-gGlu-gGlu-gGlu-gGlu(1,2)]
- EC50 [1, 4]: 13.3 nM
- EC50 [2, 6]: 0.4 nM
- EC50 [3, 8]: 0.33 nM

Molecule: H-Y[Aib]EGTFTSDYSI[Aib]LEKQAQ[Aib]AFVEWLIK([εLys-γGlu-γGlu-γGlu-γGlu-γGlu-γGlu-C20 diacid])GGPSSGVS[Aib]RHYYNWLTRQRY-NH2 [Compound 38, Y-Aib-E-G-T-F-T-S-D-Y-S-I-Aib-L-E-K-Q-A-Q-Aib-A-F-V-E-W-L-I-K(1,3)-G-G-P-S-S-G-V-S-Aib-R-H-Y-Y-N-W-L-T-R-Q-R-Y-NH2.C20DA-gGlu-gGlu-gGlu-gGlu-gGlu-gGlu-eLys(1,2)]
- EC50 [1, 5]: 17.8 nM
- EC50 [2, 6]: 0.06 nM
- EC50 [3, 9]: 0.7 nM

Molecule: H-Y[Aib]EGTFTSDYSI[Aib]LEKQAQ[Aib]AFVEWLIK([εLys-γGlu-γGlu-γGlu-γGlu-γGlu-γGlu-C20 diacid])GGPSSYVSLRHYYNWLTRQRY-NH2 [Compound 40, Y-Aib-E-G-T-F-T-S-D-Y-S-I-Aib-L-E-K-Q-A-Q-Aib-A-F-V-E-W-L-I-K(1,3)-GGPSSYVSLRHYYNWLTRQRY-NH2.C20DA-gGlu-gGlu-gGlu-gGlu-gGlu-gGlu-eLys(1,2)]
- EC50 [1, 4]: 11.9 nM
- EC50 [1, 5]: 26.4 nM
- EC50 [2, 6]: 0.46 nM
- EC50 [3, 8]: 0.48 nM
- EC50 [3, 9]: 4.36 nM

Molecule: H-Y[Aib]EGTFTSDYSI[Aib]LEKQAQ[Aib]AFVQWLIK([AEEA-AEEA-γGlu-γGlu-γGlu-γGlu-γGlu-C20 diacid])GGPSEPASLRHYYNWLTRQRY-NH2 [Compound 111, Y-Aib-E-G-T-F-T-S-D-Y-S-I-Aib-L-E-K-Q-A-Q-Aib-A-F-V-Q-W-L-I-K(1,3)-GGPSEPASLRHYYNWLTRQRY-NH2.C20DA-gGlu-gGlu-gGlu-gGlu-gGlu-OEG-OEG(1,2)]
- EC50 [1, 4]: 13.4 nM
- EC50 [1, 5]: 36.8 nM
- EC50 [2, 6]: 0.12 nM
- EC50 [3, 8]: 0.55 nM

Molecule: CC[C@H](C)[C@H](NC(=O)[C@H](CC(C)C)NC(=O)[C@H](Cc1c[nH]c2ccccc12)NC(=O)[C@H](CCC(=O)O)NC(=O)[C@@H](NC(=O)[C@H](Cc1ccccc1)NC(=O)[C@H](C)NC(=O)C(C)(C)NC(=O)[C@H](CCC(N)=O)NC(=O)[C@H](C)NC(=O)[C@H](CCC(N)=O)NC(=O)[C@H](CCCCN)NC(=O)[C@H](CCC(=O)O)NC(=O)[C@H](CC(C)C)NC(=O)C(C)(C)NC(=O)[C@@H](NC(=O)[C@H](CO)NC(=O)[C@H](Cc1ccc(O)cc1)NC(=O)[C@H](CC(=O)O)NC(=O)[C@H](CO)NC(=O)[C@@H](NC(=O)[C@H](Cc1ccccc1)NC(=O)[C@@H](NC(=O)CNC(=O)[C@H](CCC(=O)O)NC(=O)C(C)(C)NC(=O)[C@@H](N)Cc1ccc(O)cc1)[C@@H](C)O)[C@@H](C)O)[C@@H](C)CC)C(C)C)C(=O)N[C@@H](CCCCNC(=O)[C@@H](N)CCCCNC(=O)CC[C@H](NC(=O)CC[C@H](NC(=O)CC[C@H](NC(=O)CC[C@H](NC(=O)CC[C@H](NC(=O)CC[C@H](NC(=O)CCCCCCCCCCCCCCCCCCC(=O)O)C(=O)O)C(=O)O)C(=O)O)C(=O)O)C(=O)O)C(=O)O)C(=O)NCC(=O)NCC(=O)N1CCC[C@H]1C(=O)N[C@@H](CO)C(=O)N[C@@H](CO)C(=O)NCC(=O)N[C@@H](C)C(=O)N[C@@H](CO)C(=O)N[C@H](C(=O)N[C@@H](CCCNC(=N)N)C(=O)N[C@@H](Cc1c[nH]cn1)C(=O)N[C@@H](Cc1ccc(O)cc1)C(=O)N[C@@H](Cc1ccc(O)cc1)C(=O)N[C@@H](CC(N)=O)C(=O)N[C@@H](Cc1c[nH]c2ccccc12)C(=O)N[C@@H](CC(C)C)C(=O)N[C@H](C(=O)N[C@@H](CCCNC(=N)N)C(=O)N[C@@H](CCC(N)=O)C(=O)N[C@@H](CCCNC(=N)N)C(=O)N[C@@H](Cc1ccc(O)cc1)C(N)=O)[C@@H](C)O)C(C)(C)C [Compound 103, Y-Aib-E-G-T-F-T-S-D-Y-S-I-Aib-L-E-K-Q-A-Q-Aib-A-F-V-E-W-L-I-K(1,3)-G-G-P-S-S-G-A-S-Tle-R-H-Y-Y-N-W-L-T-R-Q-R-Y-NH2.C20DA-gGlu-gGlu-gGlu-gGlu-gGlu-gGlu-eLys(1,2)]
- EC50 ([1]; hNPY2R 100% hP, 100% human plasma): 50.7 nM
- EC50 ([2]; hGLP1R 0.5% hP, 0.5% human plasma): 0.13 nM
- EC50 ([3]; hGIPR 0.5% hP, 0.5% human plasma): 0.26 nM

Molecule: H-Y[Aib]EGTFTSDYSI[Aib]LEKQAQ[Aib]AFVEWLIK([εLys-γGlu-γGlu-γGlu-γGlu-γGlu-γGlu-C20 diacid])GGPSSGASLRHYLNL[Aib]TRQRY-NH2 [Compound 17, Y-Aib-E-G-T-F-T-S-D-Y-S-I-Aib-L-E-K-Q-A-Q-Aib-A-F-V-E-W-L-I-K(1,3)-G-G-P-S-S-G-A-S-L-R-H-Y-L-N-L-Aib-T-R-Q-R-Y-NH2.C20DA-gGlu-gGlu-gGlu-gGlu-gGlu-gGlu-eLys(1,2)]
- EC50 [1, 4]: > 100 nM
- EC50 [2, 6]: 0.14 nM
- EC50 [3, 8]: 0.43 nM

Molecule: H-Y[Aib]EGTFTSDYSI[Aib]LEKQAE[Aib]AFVQWLIK([AEEA-AEEA-γGlu-γGlu-γGlu-γGlu-C18 diacid])GGPSEGASLRHYYNWLTRQRY-NH2 [Compound 156, Y-Aib-E-G-T-F-T-S-D-Y-S-I-Aib-L-E-K-Q-A-E-Aib-A-F-V-Q-W-L-I-K(1,3)-GGPSEGASLRHYYNWLTRQRY-NH2.C18DA-gGlu-gGlu-gGlu-gGlu-OEG-OEG(1,2)]
- EC50 [1, 4]: 13.5 nM
- EC50 [1, 5]: 26.5 nM
- EC50 [2, 6]: 0.18 nM
- EC50 [3, 8]: 0.16 nM

Molecule: H-Y[Aib]EGTFTSDYSI[Aib]LEKQAQ[Aib]AFVEWLIK([εLys-γGlu-γGlu-γGlu-γGlu-γGlu-γGlu-C20 diacid])GGPSEPQSIRHYYNWLTRQRY-NH2 [Compound 48, Y-Aib-E-G-T-F-T-S-D-Y-S-I-Aib-L-E-K-Q-A-Q-Aib-A-F-V-E-W-L-I-K(1,3)-GGPSEPQSIRHYYNWLTRQRY-NH2.C20DA-gGlu-gGlu-gGlu-gGlu-gGlu-gGlu-eLys(1,2)]
- EC50 [1, 5]: 35.2 nM
- EC50 [2, 6]: 0.07 nM
- EC50 [3, 8]: 0.07 nM
- EC50 [3, 9]: 0.68 nM

Molecule: H-Y[Aib]EGTFTSDYSI[Aib]LEKQAQ[Aib]AFIEWLIK([γGlu-γGlu-γGlu-γGlu-C18 diacid])GGPSEGASLRHYYNWLTRQRY-NH2 [Compound 247, Y-Aib-E-G-T-F-T-S-D-Y-S-I-Aib-L-E-K-Q-A-Q-Aib-A-F-I-E-W-L-I-K(1,3)-GGPSEGASLRHYYNWLTRQRY-NH2.C18DA-gGlu-gGlu-gGlu-gGlu(1,2)]
- EC50 [1, 4]: 11.9 nM
- EC50 [1, 5]: 64.7 nM
- EC50 [2, 6]: 0.11 nM
- EC50 [3, 8]: 0.26 nM
- EC50 [3, 9]: 1.57 nM

From patent US20240247080A1, “GLP1/GIP/NPY2 RECEPTOR TRIPLE AGONISTS” (Boehringer Ingelheim International GmbH, priority 2022, published 2024)
